# Literature values, collected in patent US8758740B2, “Composition for promoting ketone body production” (Earthus, Inc, priority 2007, dated 2014).
# Like-named read-outs stand apart in the source and are kept apart here.
# Legend:
# [1] = dog
# [2] = single oral bolus, 10 g of the cyclic trimer
smiles,measurement,setting,value
C[C@@H]1CC(=O)O[C@H](C)CC(=O)O[C@H](C)CC(=O)O1 [cyclic trimer],blood ketone body level,"[1]; meat with 23.5 g cyclic trimer four times over 9 hours, after the third administration (at 6 hours)",30 times of the normal level
same,blood hydroxybutyric acid level,"[1]; meat with 23.5 g cyclic trimer four times over 9 hours, within 30 minutes from the first administration",about 50 times of the normal level
same,highest blood hydroxybutyric acid level,[1]; [2],more than 5 times of the normal level
same,time of the highest blood hydroxybutyric acid level from the administration,[1]; [2],90 min
same,blood level of ketone bodies,80 minutes after oral administration of diet containing 11 wt % of the trimer,1.8 times of the normal level
same,blood level of ketone bodies,150 minutes after oral administration of diet containing 11 wt % of the trimer,2.4 times of the normal level
